Test systems include A498; ACHN; HCC 2998; HCT-15; HOP-92; IGROV-1; KM12; Malme-3M; OVCAR-3; OVCAR-4; SK-MEL-2; SK-OV-3; SR; TK-10; U-251; UACC-62.
Common to all, as to experiment: NCI anticancer screen, dose series, 48 h

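Tested at 5 concentrations; 48 h exposure; 96-well plates; endpoints linearly interpolated, else capped at highest concentration. The concentration for 50% growth inhibition is given as GI50.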 Active and inactive are the calls of the source. No stated cut-off is given here; in the data, active = GI50 up to about 1.1 µM and inactive = higher.

As for `S=c1sc2c(Cl)ncnc2n1-c1ccccc1`, the GI50 in the experiment with A498 was 16.6 µM (inactive); with ACHN, 16.5 µM (inactive); in the experiment with HCC 2998, 17.1 µM (inactive); with HCT-15, 15.1 µM; in the experiment on HOP-92, 19.7 µM (inactive); in the experiment with IGROV-1, 15 µM (inactive). For the same compound, the GI50 in the experiment on KM12 is 17.2 µM (inactive); with Malme-3M, 10.9 µM (inactive); with OVCAR-3, 15.4 µM (inactive); with OVCAR-4 it was 18.8 µM (inactive); with SK-MEL-2 it was 8.81 µM (inactive); in the experiment on SK-OV-3, 20 µM (inactive). For the same compound, the GI50 in the experiment with SR was 3.27 µM (inactive); with TK-10, 17.8 µM (inactive); with U-251, 16 µM (inactive); with UACC-62, 9.62 µM (inactive).
For `COc1cc(/C=C2\NC(=S)C3Cc4c(OC)c(C)c(OC)c(OC)c4C2N3C)c(OC)c(C)c1OC` (stereo not given), the GI50 with A498 is 63.5 µM (inactive); in the experiment with ACHN it was 48.2 µM (inactive); in the experiment on HCC 2998 it was 69 µM (inactive); with HOP-92, 9.38 µM (inactive); in the experiment on IGROV-1 it was > 100 µM (inactive); in the experiment with KM12 it was 92.9 µM (inactive). The GI50 was 29 µM (inactive) in the experiment on Malme-3M; 31 µM (inactive) with OVCAR-3; > 100 µM (inactive) with OVCAR-4; 36.2 µM (inactive) in the experiment with SK-MEL-2; > 100 µM (inactive) with SK-OV-3; 10.4 µM (inactive) with SR. Also, the GI50 with TK-10 was 46 µM (inactive); in the experiment with U-251 it was 45.1 µM (inactive); in the experiment on UACC-62, 98.4 µM (inactive).
For the compound `COc1ccccc1/C=N/C12CC3CC(CC(C3)C1)C2`, the GI50 in the experiment with A498 is > 100 µM (inactive); in the experiment with ACHN it was > 100 µM (inactive); in the experiment with HCC 2998, > 100 µM (inactive); with HCT-15, 91.8 µM; with HOP-92, > 100 µM (inactive); in the experiment with KM12, > 100 µM (inactive). Also, the GI50 in the experiment on Malme-3M, in the experiment with OVCAR-3, in the experiment on OVCAR-4, with SK-MEL-2, in the experiment with SK-OV-3 and in the experiment on SR was > 100 µM (inactive) throughout. The GI50 with TK-10, with U-251 and in the experiment with UACC-62 was > 100 µM (inactive) in each case.
Regarding `COC(=O)C(CCCCCCCC(C(=O)OC)C1=Nc2nnc(N)n2C1=O)C1=Nc2nnc(N)n2C1=O` (stereo not given), the GI50 in the experiment on A498 is > 100 µM (inactive); in the experiment on ACHN it was > 100 µM (inactive); in the experiment with HCC 2998 it was > 100 µM (inactive); in the experiment on HCT-15, above 100 µM; with HOP-92, 65.8 µM (inactive); in the experiment with IGROV-1, > 100 µM (inactive). Besides, the GI50 in the experiment with KM12, in the experiment with Malme-3M, in the experiment with OVCAR-3, in the experiment with OVCAR-4, in the experiment on SK-MEL-2 and in the experiment on SK-OV-3 was > 100 µM (inactive) each time. The GI50 in the experiment on SR, with TK-10, with U-251 and in the experiment on UACC-62 was > 100 µM (inactive) each time.
For the compound `COc1ccc(C(=O)O/N=C2/CCCCC2CN(C)C)cc1` (stereo not given), the GI50 in the experiment on A498 is > 100 µM (inactive); in the experiment with ACHN, > 100 µM (inactive); with HCC 2998 it was > 100 µM (inactive); in the experiment on HCT-15, above 100 µM; in the experiment with HOP-92, > 100 µM (inactive); with IGROV-1, > 100 µM (inactive). Moreover, the GI50 in the experiment with KM12, in the experiment with Malme-3M, with OVCAR-3, in the experiment with OVCAR-4, with SK-MEL-2 and with SK-OV-3 was > 100 µM (inactive) in each case. For the same compound, the GI50 in the experiment on SR, in the experiment with TK-10, with U-251 and with UACC-62 was > 100 µM (inactive) throughout.
Regarding `CSC1CC2C(CC1(C)SC)C2(C)C` (stereo not given), the GI50 was > 100 µM (inactive) in the experiment on A498; > 100 µM (inactive) in the experiment on ACHN; 87.1 µM (inactive) in the experiment on HCC 2998; 51.3 µM in the experiment with HCT-15; 16.3 µM (inactive) in the experiment with HOP-92; 42.8 µM (inactive) in the experiment with IGROV-1. The GI50 is 48.2 µM (inactive) in the experiment with KM12; 41.8 µM (inactive) in the experiment with Malme-3M; 37.9 µM (inactive) in the experiment with OVCAR-3; 62.8 µM (inactive) with OVCAR-4; 23.2 µM (inactive) in the experiment with SK-MEL-2; 39.9 µM (inactive) in the experiment with SK-OV-3. Further, the GI50 with SR was 30.8 µM (inactive); in the experiment on TK-10 it was > 100 µM (inactive); in the experiment with U-251, 32.1 µM (inactive); with UACC-62 it was 60.7 µM (inactive).
For `COc1cc2c(cc1OC)[C@H]1C(COC(=O)c3ccccc3)CS/C(=N/c3ccccc3)N1CC2` (stereo not given in full), the GI50 in the experiment on A498 was 48.9 µM (inactive); in the experiment on ACHN, > 100 µM (inactive); in the experiment with HCC 2998, > 100 µM (inactive); in the experiment on HCT-15, above 100 µM; in the experiment on HOP-92, 8.17 µM (inactive); in the experiment with IGROV-1, > 100 µM (inactive). Also, the GI50 is > 100 µM (inactive) in the experiment with KM12; > 100 µM (inactive) in the experiment with Malme-3M; > 100 µM (inactive) with OVCAR-3; 5.15 µM (inactive) with OVCAR-4; 3.21 µM (inactive) in the experiment with SK-MEL-2; > 100 µM (inactive) in the experiment on SK-OV-3. Besides, the GI50 is 5.71 µM (inactive) in the experiment with SR, 81.1 µM (inactive) in the experiment on TK-10, 24.3 µM (inactive) in the experiment with U-251 and > 100 µM (inactive) with UACC-62.
In the case of `COc1ccc(-c2cc(-c3ccco3)c(C#N)c(=O)n2C2OC(OC(=O)c3ccccc3)C(OC(=O)c3ccccc3)C2OC(=O)c2ccccc2)cc1` (stereo not given), the GI50 in the experiment with A498 is > 100 µM (inactive); in the experiment on ACHN, > 100 µM (inactive); with HCC 2998 it was > 100 µM (inactive); in the experiment with HCT-15, above 100 µM; in the experiment with HOP-92 it was 23.9 µM (inactive); with IGROV-1, > 100 µM (inactive). The GI50 was > 100 µM (inactive) in the experiment on KM12; > 100 µM (inactive) in the experiment on Malme-3M; 58.6 µM (inactive) in the experiment with OVCAR-3; > 100 µM (inactive) in the experiment with OVCAR-4; > 100 µM (inactive) with SK-MEL-2; > 100 µM (inactive) in the experiment on SR. The GI50 was 13.6 µM (inactive) in the experiment on TK-10, 33.1 µM (inactive) in the experiment with U-251 and > 10 µM (inactive) in the experiment on UACC-62.
In the case of `NC(=O)/C(=N\NC(=O)C[n+]1ccccc1)C1NC(=O)NC1=O` (stereo not given), the GI50 in the experiment on A498 is > 100 µM (inactive); in the experiment with ACHN, > 100 µM (inactive); in the experiment on HCC 2998 it was > 100 µM (inactive); with HCT-15, above 100 µM; in the experiment with HOP-92 it was > 100 µM (inactive); in the experiment with IGROV-1, > 100 µM (inactive). In addition, the GI50 with KM12, in the experiment on Malme-3M, in the experiment on OVCAR-3, in the experiment with OVCAR-4, with SK-MEL-2 and in the experiment with SK-OV-3 was > 100 µM (inactive) throughout. In addition, the GI50 in the experiment on SR, with TK-10 and with UACC-62 was > 100 µM (inactive) throughout.
